Assay results reported in article PMC4129175, “HPLC-Fingerprints and Antioxidant Constituents of Phyla nodiflora” (The Scientific World Journal, 2014).
Read-outs that look alike come from different tables or passages of the source.

Columns and labels:
[1] = set-up: method as in Lan et al. 2013 [15]; conditions: positive control; ref Lan et al. 2013 [15]; cited from earlier work
[2] = set-up: method as in Lan et al. 2013 [15]; conditions: positive control; ref Lan et al. 2013 [15]; cited from earlier work; remark: listed apart in the source
[3] = set-up: method as in Lan et al. 2013 [15]; conditions: positive control; ref Lan et al. 2013 [15]; cited from earlier work; remark: listed apart in the source
[4] = DPPH radical (DPPH∙) scavenging assay; conditions: concentration that scavenges 50% radicals; mean ± SD, n = 3
Protocol: In the DPPH radical (DPPH^∙) scavenging assay, fifty microliters of samples of various concentrations were mixed with 150 μl of DPPH^∙ solution (0.1 mM) dissolved in methanol. Each mixture was allowed to stand for 30 min and measured at 517 nm using a multiplate spectrophotometer (μQuant, Bio-Tek, USA). The scavenging ability was calculated using the following formula: (1) Scavenging ability (%) =(1−sample absorbance/control absorbance)×100%.

[5] = ABTS cation radical (ABTS∙+) decolorization/scavenging assay; conditions: concentration that scavenges 50% radicals; mean ± SD, n = 3
Protocol: The ABTS decolorization assay was performed as described, with slight modification. The ABTS cation radical (ABTS^∙+) was produced by reacting 7 mM stock solution of ABTS with 2.45 mM potassium persulfate (final concentration) and allowing the mixture to stand in the dark for 6–8 h at room temperature before use. The ABTS^∙+ solution was diluted to an absorbance of 0.7 ± 0.02 at 734 nm. Thirty microliters of samples of different concentrations were mixed with 170 μl of ABTS^∙+ working solution under a dark condition and shaken for 15 s. The absorbance was measured at 734 nm after 20 min. The scavenging capacity was calculated using the same formula as for the DPPH radical scavenging assay.

[6] = Superoxide anion radical (O2∙−) scavenging assay (xanthine/xanthine oxidase, NBT); assay type: biochemical; conditions: concentration that scavenges 50% radicals; mean ± SD, n = 3
Protocol: (§1) The procedures of O2 ^∙− scavenging activity and mushroom tyrosinase inhibitory effect were performed as previous report. In the O2 ^∙− scavenging assay, xanthine (0.1 mM, 15 μl) in 50 mM phosphate buffer (pH 7.4), NBT (25 μM, 16 μl), EDTA (0.1 μM, 14 μl), and 100 μl of various concentrations of test compounds were mixed in the 96-well plates. Reactions were initiated by adding 0.5 U xanthine oxidase. After 30 min, the absorbance of each mixture was measured at 540 nm. In the mushroom tyrosinase inhibitory assay, L-tyrosine (2 mM, 80 μl) in 50 mM phosphate buffer (pH 6.5) and various concentrations of test compounds (100 μl) were added to 96-well plates. After 10 min incubation, 20 U mushroom tyrosinase was added to start the reaction. The absorbance of each mixture was measured at 490 nm after 30 min incubation. The O2 ^∙− scavenging capacity and the percentage inhibition of mushroom tyrosinase were calculated using the same formula as for the DPPH radical scavenging assay.

[7] = molecular target: mushroom tyrosinase (Agaricus bisporus, UniProt C7FF04); experiment: Lineweaver-Burk kinetic study of tyrosinase inhibition; assay type: biochemical; conditions: Lineweaver-Burk plot, various concentrations of tyrosine
Sequence of mushroom tyrosinase (C7FF04 1-392): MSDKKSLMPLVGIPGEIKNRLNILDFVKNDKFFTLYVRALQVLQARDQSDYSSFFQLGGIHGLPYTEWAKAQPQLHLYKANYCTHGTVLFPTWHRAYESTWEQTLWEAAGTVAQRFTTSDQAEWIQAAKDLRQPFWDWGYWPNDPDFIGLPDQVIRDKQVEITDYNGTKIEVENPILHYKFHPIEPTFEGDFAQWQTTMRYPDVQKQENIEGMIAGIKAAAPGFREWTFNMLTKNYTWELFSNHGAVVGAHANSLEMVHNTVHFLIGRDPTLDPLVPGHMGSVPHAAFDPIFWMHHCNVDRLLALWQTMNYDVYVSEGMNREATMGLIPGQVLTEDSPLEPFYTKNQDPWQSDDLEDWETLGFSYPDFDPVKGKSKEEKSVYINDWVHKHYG
Sequence of mushroom tyrosinase (G1K3P4 entry or part of it, further chain): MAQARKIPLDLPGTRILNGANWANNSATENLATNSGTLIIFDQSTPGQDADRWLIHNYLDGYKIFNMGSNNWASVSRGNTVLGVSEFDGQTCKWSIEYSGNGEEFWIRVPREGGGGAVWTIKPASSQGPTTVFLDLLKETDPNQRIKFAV
Protocol: as §1
(§2) This study used Lineweaver-Burk plots to determine the inhibitory mode of test samples [15]. The kinetic study was performed in the presence or absence of test samples with various concentrations of tyrosine or xanthine as the substrate.
Figure 2 Lineweaver-Burk plot of tyrosinase inhibition of (a) onopordin (4) and (b) eupafolin (7) with various concentrations of tyrosine. […]

[8] = molecular target: T1, xanthine oxidase (XO) (Bos taurus, UniProt P80457); experiment: Lineweaver-Burk kinetic study of xanthine oxidase inhibition; assay type: biochemical; conditions: for Ki / Vmax (xanthine oxidase): xanthine as substrate
T1 construct: purchased Sigma-Aldrich; host or cells: buttermilk
T1 sequence (P80457 whole entry): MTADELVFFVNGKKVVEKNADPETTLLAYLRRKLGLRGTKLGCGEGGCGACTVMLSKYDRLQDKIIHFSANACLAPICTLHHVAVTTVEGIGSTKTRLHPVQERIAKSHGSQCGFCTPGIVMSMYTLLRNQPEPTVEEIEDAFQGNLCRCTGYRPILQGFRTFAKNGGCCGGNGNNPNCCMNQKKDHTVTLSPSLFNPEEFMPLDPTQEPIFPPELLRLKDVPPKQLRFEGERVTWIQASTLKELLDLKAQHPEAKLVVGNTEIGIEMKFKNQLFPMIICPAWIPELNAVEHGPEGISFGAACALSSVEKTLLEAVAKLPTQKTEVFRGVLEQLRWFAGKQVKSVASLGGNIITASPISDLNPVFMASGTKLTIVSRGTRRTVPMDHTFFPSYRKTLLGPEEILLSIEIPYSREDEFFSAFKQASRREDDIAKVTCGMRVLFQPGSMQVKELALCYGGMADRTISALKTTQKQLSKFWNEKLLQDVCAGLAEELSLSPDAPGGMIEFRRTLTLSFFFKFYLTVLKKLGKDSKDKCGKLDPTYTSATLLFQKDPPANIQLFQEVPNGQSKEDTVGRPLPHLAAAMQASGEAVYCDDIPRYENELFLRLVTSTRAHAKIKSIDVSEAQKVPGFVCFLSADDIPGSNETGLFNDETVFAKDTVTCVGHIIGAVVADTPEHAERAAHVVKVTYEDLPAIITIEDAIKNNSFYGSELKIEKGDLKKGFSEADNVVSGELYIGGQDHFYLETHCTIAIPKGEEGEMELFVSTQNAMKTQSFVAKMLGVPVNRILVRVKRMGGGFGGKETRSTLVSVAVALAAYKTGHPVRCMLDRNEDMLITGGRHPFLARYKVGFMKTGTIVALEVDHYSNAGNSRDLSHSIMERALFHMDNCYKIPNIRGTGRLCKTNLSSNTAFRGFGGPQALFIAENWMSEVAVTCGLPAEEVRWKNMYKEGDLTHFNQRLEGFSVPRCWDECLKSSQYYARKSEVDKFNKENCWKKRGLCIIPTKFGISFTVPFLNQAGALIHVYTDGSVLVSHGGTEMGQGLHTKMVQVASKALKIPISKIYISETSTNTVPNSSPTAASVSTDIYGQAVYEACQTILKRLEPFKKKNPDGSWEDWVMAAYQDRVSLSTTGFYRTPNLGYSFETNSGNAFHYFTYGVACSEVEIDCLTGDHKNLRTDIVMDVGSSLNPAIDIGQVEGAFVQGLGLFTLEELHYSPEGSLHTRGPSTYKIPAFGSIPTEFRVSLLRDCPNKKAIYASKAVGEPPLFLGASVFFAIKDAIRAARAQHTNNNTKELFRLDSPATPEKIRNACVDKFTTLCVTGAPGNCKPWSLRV
Protocol: as §1, §2
Figure 1 Lineweaver-Burk plot of xanthine oxidase inhibition of eupafolin (7) with various concentrations of xanthine. (×) Without eupafolin, (▲) 5 μM of eupafolin, (●) 10 μM of eupafolin, and (○) 20 μM of eupafolin. Data are presented as mean ± SD of three independent experiments.

SMILES	DPPH∙ SC50 [4]	ABTS∙+ SC50 [5]	O2∙− SC50 [6]	further results
O=c1cc(-c2ccc(O)cc2)oc2cc(O)cc(O)c12 [Apigenin]				DPPH∙ SC50 [1]: >300 µM; ABTS∙+ SC50 [2]: 159.6 ± 4.4 µM; O2∙− SC50 [3]: 81.3 ± 2.0 µM
COc1cc(-c2cc(=O)c3c(O)c(O)c(O)cc3o2)ccc1O [Compound 2, nodifloretin]	198.2 ± 3.8 µM	62.2 ± 2.5 µM	42.3 ± 1.5 µM	
COc1c(O)cc(O)c2c(=O)cc(-c3ccc(O)cc3)oc12 [Compound 3, 4′-hydroxywogonin]	>300 µM	>300 µM	59.9 ± 2.1 µM	
COc1c(O)cc(O)c2c(=O)cc(-c3ccc(O)c(O)c3)oc12 [Compound 4, onopordin]	24.7 ± 1.2 µM	53.7 ± 3.9 µM	23.5 ± 0.5 µM	Inhibitory mode on tyrosinase [7]: mixed-type inhibitor
COc1cc2oc(-c3ccc(O)c(O)c3)cc(=O)c2c(O)c1OC [Compound 5, cirsiliol]	21.8 ± 1.2 µM	58.4 ± 2.7 µM	10.7 ± 1.3 µM	
COc1cc(-c2cc(=O)c3c(O)cc(O)c(O)c3o2)ccc1O [Compound 6, 5,7,8,4′-tetrahydroxy-3′-methoxyflavone]	>300 µM	>300 µM	34.6 ± 2.4 µM	
COc1c(O)cc2oc(-c3ccc(O)c(O)c3)cc(=O)c2c1O [Compound 7, eupafolin]	24.1 ± 0.4 µM	30.5 ± 1.2 µM	8.3 ± 0.4 µM	Ki ([8]; 7 at 5 μM): 4.48 µM; Vmax (xanthine oxidase) ([8]; 7 at 5 μM): 3.6 × 10^−2 ΔO.D./min; Ki ([8]; 7 at 10 μM): 5.05 µM; Vmax (xanthine oxidase) ([8]; 7 at 10 μM): 3.2 × 10^−2 ΔO.D./min; Ki ([8]; 7 at 20 μM): 8.93 µM; Vmax (xanthine oxidase) ([8]; 7 at 20 μM): 3.1 × 10^−2 ΔO.D./min; Inhibitory mode on xanthine oxidase ([8]; Lineweaver-Burk plot, various concentrations of xanthine): mixed-type inhibitor; Inhibitory mode on tyrosinase [7]: competitive inhibitor
COc1c(O)cc2oc(-c3ccc(O)cc3)cc(=O)c2c1O [Compound 8, hispidulin]	57.5 ± 2.7 µM	55.3 ± 3.8 µM		
O=C1O[C@H]([C@@H](O)CO)C(O)=C1O [Vit. C, L-Ascorbic acid, reference compound]	64.6 ± 4.4 µM	49.9 ± 2.1 µM	23.5 ± 1.7 µM	
